Experimental data: US8222483B2, “Cytokinin oxidase sequences and methods of use” (Pioneer Hi Bred International Inc, priority 2004, dated 2012)

Tested on: ZmCkx2
Assay: ZmCkx2 expression in leaf discs incubated with benzyladenine (Northern and Lynx analyses)
Type: cell-based, maize
Settings: leaf discs incubated with 10 μM benzyladenine
Procedure: Northern analysis of ZmCkx2 was performed using ExpressHyb™ Hybridization Solution from BD Biosciences Clontech (Palo Alto, Calif.) with a final wash in 0.1×SSC, 0.1% SDS at 65° C. for 20 minutes.
A tight relationship exists between Lynx and Northern data for ZmCkx2. This provided confidence when the Lynx database was mined for ZmCkx2 expression in various plant parts. […] Similarly, Northern data indicated strongest signals from ear leaf and midrib tissues; intermediate levels in tassel, husk leaves, young leaves, stalk, and pulvini; and lower levels in cob and ovary tissue. Little to no ZmCkx2 activity was detected by Northern analysis of roots or silks.

Compound: c1ccc(CNc2ncnc3nc[nH]c23)cc1 [benzyladenine]
- increase in ZmCkx2 expression: 2 fold
